Test results reported in ChEMBL document CHEMBL1201862, “PubChem BioAssay data set” (2004).
Several values for one entry are separate records, joined by “and”; a condition that tells them apart may be missing. Equal values may be shown once. Activity calls are given as the source filed them.

Experiments:
[1] = target: T1, Eukaryotic translation initiation factor 2-alpha kinase 3 (Homo sapiens, UniProt Q9NZJ5); experiment: Dose response cell-based high-throughput screening assay to measure PERK inhibition. [Related pubchem assays: 1416 ]; format: functional
T1 sequence (Q9NZJ5 whole entry): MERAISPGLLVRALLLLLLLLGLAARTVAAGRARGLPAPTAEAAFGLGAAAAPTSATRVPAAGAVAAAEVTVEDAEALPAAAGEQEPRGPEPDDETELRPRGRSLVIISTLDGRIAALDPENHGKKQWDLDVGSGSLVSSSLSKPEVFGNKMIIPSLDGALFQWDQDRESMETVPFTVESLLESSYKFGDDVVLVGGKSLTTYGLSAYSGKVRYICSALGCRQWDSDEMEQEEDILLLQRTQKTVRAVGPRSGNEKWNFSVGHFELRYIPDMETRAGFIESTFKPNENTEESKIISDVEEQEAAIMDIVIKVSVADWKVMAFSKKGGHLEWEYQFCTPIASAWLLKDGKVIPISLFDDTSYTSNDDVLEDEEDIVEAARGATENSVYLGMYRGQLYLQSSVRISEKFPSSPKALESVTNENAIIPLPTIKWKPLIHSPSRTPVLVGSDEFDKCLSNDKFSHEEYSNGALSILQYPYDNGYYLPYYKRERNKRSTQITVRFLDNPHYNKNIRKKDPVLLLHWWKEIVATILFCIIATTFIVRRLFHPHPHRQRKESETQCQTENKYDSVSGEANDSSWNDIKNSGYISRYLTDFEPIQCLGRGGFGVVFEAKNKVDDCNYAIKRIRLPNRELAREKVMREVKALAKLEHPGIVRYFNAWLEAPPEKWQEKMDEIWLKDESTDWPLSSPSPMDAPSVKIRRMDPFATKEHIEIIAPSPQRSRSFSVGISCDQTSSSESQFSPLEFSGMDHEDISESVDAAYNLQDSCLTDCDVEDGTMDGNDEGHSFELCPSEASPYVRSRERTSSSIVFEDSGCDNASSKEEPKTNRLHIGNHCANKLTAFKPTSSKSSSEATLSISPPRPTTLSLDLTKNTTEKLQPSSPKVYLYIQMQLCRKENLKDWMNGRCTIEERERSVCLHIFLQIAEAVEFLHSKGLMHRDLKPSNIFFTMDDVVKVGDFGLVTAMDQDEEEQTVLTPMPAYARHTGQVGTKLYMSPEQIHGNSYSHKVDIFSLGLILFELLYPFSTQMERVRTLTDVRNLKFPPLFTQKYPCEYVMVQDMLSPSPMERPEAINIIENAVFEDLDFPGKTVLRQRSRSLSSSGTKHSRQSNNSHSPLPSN

[2] = target: T1, Eukaryotic translation initiation factor 2-alpha kinase 3; experiment: Counterscreen assay for PERK inhibitors: Dose response cell-based high throughput screening assay to measure inhibition of PERK at 6 hours. [Related pubchem assays: 1522, 1416 ]; format: functional
[3] = target: Acyl-homoserine lactone acylase PvdQ (Pseudomonas aeruginosa (strain LESB58), UniProt Q9I194); experiment: P. aeruginosa PvdQ acylase inhibitors, dose response, biochemical, fluorescence, plate reader and imaging, cherry-picks (AID 493231)
Chain of Acyl-homoserine lactone acylase PvdQ (Q9I194 24-193 limits assumed): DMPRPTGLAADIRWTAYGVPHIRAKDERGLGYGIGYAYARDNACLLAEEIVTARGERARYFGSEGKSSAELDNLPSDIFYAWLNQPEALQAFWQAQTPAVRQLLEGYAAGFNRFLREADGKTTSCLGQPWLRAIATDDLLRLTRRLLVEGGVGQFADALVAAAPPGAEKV
Chain of Acyl-homoserine lactone acylase PvdQ (Q9I194 217-762 limits assumed): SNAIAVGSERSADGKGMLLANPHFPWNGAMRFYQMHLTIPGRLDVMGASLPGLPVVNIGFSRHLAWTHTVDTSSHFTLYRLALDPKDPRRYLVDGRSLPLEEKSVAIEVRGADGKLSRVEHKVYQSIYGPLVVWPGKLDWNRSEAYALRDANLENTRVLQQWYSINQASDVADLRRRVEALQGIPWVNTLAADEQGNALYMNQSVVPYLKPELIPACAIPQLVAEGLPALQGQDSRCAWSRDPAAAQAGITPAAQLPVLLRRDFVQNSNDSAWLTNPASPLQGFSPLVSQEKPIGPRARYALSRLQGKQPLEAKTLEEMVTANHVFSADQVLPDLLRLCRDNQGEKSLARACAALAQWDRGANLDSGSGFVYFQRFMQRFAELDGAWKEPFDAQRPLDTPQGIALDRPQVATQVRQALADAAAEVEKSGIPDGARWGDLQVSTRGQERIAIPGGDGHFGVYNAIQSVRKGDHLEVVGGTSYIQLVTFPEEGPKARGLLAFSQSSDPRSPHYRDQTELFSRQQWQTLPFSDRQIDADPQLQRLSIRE

[4] = target: Voltage-dependent T-type calcium channel subunit alpha-1H (Homo sapiens, UniProt O95180); format: functional;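 note: channel activity triggered by adding a high calcium stimulation buffer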
Cytochrome P450 2C9 = Cytochrome P450 2C9 (Homo sapiens, UniProt P11712); conditions: Potency
Chain of Cytochrome P450 2C9 (P11712 whole entry): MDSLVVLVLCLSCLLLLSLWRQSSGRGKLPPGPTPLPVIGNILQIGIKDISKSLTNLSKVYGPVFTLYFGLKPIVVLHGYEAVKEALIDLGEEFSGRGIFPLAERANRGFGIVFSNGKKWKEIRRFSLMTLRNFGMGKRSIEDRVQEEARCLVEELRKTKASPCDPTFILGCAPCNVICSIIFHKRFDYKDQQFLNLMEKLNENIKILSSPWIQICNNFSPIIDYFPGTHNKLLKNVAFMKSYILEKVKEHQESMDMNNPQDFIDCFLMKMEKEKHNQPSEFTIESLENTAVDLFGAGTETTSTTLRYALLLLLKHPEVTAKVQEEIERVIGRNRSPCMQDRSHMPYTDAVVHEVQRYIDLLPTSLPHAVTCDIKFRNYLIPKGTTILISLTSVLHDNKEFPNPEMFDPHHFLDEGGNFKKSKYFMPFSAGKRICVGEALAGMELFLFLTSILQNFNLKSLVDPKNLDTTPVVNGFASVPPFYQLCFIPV

Cytochrome P450 3A4 = Cytochrome P450 3A4 (Homo sapiens, UniProt P08684); conditions: Potency;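 note: confirmatory qHTS run detecting inhibitors and substrates of CYP3A4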
Chain of Cytochrome P450 3A4 (P08684 whole entry): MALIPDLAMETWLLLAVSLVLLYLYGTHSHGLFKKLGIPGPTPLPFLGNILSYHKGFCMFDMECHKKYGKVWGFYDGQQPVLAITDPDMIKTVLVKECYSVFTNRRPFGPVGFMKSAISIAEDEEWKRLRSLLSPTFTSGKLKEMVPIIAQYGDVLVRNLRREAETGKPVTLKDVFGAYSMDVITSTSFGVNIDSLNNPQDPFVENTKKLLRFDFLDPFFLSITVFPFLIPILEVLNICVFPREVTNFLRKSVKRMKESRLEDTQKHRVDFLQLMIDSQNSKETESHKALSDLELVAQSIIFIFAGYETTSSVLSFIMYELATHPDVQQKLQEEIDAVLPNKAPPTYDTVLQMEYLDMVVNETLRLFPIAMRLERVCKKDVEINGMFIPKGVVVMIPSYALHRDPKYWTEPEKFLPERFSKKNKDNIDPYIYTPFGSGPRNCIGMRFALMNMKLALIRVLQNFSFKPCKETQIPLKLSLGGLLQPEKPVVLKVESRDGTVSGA

HT-1080 = experiment: cytotoxicity in HT1080 fibrosarcoma cells, cell-based, fluorescence readout (AID 620); format: functional; conditions: Homo sapiens
[5] = target: Luciferin 4-monooxygenase (Photinus pyralis, UniProt P08659); experiment: Counter Screen for Luciferase-based Assay Positives. [Related pubchem assays: 620, 618, 411 ]
Chain of Luciferin 4-monooxygenase (P08659 whole entry): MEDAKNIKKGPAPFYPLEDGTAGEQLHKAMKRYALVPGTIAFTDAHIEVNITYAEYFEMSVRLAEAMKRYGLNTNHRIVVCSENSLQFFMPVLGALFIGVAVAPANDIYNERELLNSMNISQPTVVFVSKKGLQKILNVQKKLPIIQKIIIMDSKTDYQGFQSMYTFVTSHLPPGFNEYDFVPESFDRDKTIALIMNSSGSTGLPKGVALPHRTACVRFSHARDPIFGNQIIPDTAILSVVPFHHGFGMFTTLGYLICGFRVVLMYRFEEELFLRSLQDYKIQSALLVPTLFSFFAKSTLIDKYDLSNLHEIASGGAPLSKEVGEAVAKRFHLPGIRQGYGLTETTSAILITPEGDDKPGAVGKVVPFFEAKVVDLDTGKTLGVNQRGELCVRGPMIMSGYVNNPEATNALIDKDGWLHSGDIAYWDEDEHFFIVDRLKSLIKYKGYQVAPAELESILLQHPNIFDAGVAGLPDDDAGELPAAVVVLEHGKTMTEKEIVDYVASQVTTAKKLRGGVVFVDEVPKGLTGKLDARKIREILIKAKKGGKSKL

Estrogen receptor = target: T2, Estrogen receptor (Homo sapiens, UniProt P03372); experiment: ERα–SRC-3 coactivator interaction inhibitors, confirmation, orthogonal assay, biochemical, ELISA, streptavidin-HRP readout (AID 1079)
T2 sequence (P03372 whole entry): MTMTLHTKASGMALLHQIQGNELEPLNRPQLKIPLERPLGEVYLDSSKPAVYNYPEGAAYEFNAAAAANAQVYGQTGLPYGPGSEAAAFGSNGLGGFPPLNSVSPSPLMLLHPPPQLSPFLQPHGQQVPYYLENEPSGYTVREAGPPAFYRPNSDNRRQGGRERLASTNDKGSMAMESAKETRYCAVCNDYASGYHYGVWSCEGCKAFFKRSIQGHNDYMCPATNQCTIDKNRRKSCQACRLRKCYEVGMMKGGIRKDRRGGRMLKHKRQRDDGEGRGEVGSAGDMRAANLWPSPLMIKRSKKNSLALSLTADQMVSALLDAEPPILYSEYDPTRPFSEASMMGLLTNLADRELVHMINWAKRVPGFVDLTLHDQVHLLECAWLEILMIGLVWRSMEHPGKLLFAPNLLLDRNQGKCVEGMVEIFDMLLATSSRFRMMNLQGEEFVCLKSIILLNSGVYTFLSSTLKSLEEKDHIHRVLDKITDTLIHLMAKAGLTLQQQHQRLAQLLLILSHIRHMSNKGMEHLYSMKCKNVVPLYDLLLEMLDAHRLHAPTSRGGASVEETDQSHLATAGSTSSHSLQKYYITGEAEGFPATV

Beta-galactosidase = Beta-galactosidase (Escherichia coli, UniProt Q8VNN2); experiment: beta-galactosidase enzyme inhibitors and activators, dose response, artefact control for CCR6 antagonist project, biochemical, E. coli enzyme, set 3 (AID 504712); format: functional
[6] = inhibitors of clade B AD8 Env fusion, dose response, cell-based, cherry-pick (AID 652062); format: functional;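 note: luciferase signal from cell-cell fusion driven by HIV-1 clade B AD8 Env; potency is for inhibitors of fusion seen as a drop in luminescence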
cells [7] = format: functional, cell-based; conditions: HEK-CNG
Galanin receptor type 3 = target: T3, Galanin receptor type 3 (Homo sapiens, UniProt O60755); experiment: Fluorescence-based cell-based primary high throughput dose response assay to identify antagonists of the Galanin Receptor 3 (GalR3).; format: functional
T3 sequence (O60755 whole entry): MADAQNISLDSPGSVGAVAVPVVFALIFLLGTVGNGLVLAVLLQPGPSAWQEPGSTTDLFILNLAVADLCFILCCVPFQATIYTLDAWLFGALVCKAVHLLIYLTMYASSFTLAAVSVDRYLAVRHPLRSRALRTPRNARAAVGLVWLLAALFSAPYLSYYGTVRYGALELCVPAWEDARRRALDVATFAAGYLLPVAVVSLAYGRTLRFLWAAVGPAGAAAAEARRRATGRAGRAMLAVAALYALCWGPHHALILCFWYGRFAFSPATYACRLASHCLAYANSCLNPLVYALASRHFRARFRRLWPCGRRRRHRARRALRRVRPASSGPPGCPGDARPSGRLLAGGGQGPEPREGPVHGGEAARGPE

[8] = target: C-C chemokine receptor type 6 (Homo sapiens, UniProt P51684); experiment: CCR6 receptor antagonists, dose response, cell-based, luminescent beta-arrestin readout (AID 504728); format: functional
Chain of C-C chemokine receptor type 6 (P51684 whole entry, the tested form may be a part): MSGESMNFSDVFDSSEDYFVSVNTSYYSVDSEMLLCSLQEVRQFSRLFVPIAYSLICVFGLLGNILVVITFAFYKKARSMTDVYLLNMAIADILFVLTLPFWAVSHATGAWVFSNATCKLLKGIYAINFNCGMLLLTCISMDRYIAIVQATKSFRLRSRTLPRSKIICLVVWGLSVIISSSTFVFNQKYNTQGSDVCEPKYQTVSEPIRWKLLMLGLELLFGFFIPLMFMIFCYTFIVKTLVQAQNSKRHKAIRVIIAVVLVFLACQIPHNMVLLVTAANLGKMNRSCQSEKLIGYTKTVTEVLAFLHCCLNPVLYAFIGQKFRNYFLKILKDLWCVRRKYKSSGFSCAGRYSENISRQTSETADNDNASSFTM

[9] = CEM21 lymphoblast cell cytotoxicity, dose response, cytotoxicity control for viral fusion inhibitor project, CellTiter-Glo luminescence, cherry-picked (AID 652042); format: functional, cell-based;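 note: potency for signal decrease meaning cytotoxicity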
[10] = ZM109 Env clade C HIV-1 fusion inhibitors, dose response, HeLa effector, CEM target cells, luciferase, cherry-pick (AID 652058); format: functional, cell-based
[11] = test system: Streptococcus sp. 'group A'; experiment: growth inhibition of control SK(-) GAS strain, dose response, counter-screen for streptokinase expression inhibitor project, luminescence, kanamycin, BacTiterGlo, confirmation (AID 1900); format: functional, organism-based
[12] = microbe, parasite or virus in culture; format: functional; conditions: Mycobacterium tuberculosis
Streptococcus = experiment: Group A Streptococcus viability loss, dose response, counter-screen for streptokinase expression inhibitor project, luminescence, BacTiterGlo (AID 1915); format: functional, organism-based;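 note: potency for reduction of bacterial viability or growth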
cells [13] = format: functional
[14] = target: NACHT, LRR and PYD domains-containing protein 3 (Homo sapiens, UniProt Q96P20); experiment: NALP3 inhibitors in yeast, dose response, luminescent (AID 488799); format: functional
Chain of NACHT, LRR and PYD domains-containing protein 3 (Q96P20 whole entry, the tested form may be a part): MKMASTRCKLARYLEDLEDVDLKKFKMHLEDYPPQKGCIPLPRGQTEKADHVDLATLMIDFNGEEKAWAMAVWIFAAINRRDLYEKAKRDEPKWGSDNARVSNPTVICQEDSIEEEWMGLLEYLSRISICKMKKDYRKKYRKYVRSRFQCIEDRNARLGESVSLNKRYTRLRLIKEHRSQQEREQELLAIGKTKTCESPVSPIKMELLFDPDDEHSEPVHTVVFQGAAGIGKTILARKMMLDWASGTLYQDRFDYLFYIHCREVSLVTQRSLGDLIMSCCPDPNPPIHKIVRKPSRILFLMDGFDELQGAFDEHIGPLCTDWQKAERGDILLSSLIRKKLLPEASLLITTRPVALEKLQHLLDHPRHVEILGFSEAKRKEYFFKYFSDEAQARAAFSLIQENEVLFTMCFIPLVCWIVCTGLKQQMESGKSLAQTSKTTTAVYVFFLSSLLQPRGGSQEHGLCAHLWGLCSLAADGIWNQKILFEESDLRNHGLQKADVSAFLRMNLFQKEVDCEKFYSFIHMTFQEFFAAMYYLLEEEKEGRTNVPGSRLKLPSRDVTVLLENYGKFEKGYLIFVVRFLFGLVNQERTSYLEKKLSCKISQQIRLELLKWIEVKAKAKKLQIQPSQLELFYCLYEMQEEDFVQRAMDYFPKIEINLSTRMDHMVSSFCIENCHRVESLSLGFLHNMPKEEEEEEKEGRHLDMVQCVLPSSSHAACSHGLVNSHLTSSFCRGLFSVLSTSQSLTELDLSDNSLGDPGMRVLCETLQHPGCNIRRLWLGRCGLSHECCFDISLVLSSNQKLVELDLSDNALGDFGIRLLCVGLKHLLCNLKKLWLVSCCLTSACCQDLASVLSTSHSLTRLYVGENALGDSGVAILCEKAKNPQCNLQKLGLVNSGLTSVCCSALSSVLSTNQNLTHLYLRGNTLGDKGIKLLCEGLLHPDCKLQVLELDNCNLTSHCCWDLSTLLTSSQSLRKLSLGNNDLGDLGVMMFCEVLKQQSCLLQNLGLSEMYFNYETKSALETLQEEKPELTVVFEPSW

[15] = Vero E6 cell cytotoxicity, dose response, cytotoxicity control for non-replicating M. tuberculosis project, secondary assay (AID 492998); format: functional, VeroE6; conditions: Vero C1008

Q: What does the source list for CC(C)C(=O)Nc1ccc2c(c1)nc(CCN1CCN(C)CC1)n2C?
A: EC50 [1]: > 55.7 µM (not active); EC50 [2]: > 55.7 µM (not active)

Q: With CC(C)CCNC(=O)c1cccc(Cl)c1 as the compound, how does the AC50 [3] read?
A: 6.33 µM (active)

Q: For CCN(CC)S(=O)(=O)c1cccc(C(=O)N[C@H](C(=O)OCC(=O)Nc2ccccc2)C(C)C)c1, which EC50 [4] is on record?
A: 0.558 µM (active)

Q: What does the source list for OC1c2ccccc2-c2nc3ccccc3cc21 (configuration not stated)?
A: AC50 (Cytochrome P450 2C9): 25.1 µM (inconclusive); AC50 (Cytochrome P450 3A4): 25.1 µM (inconclusive)

Q: With CCOC(=O)CNC(=O)CSc1ncnc2c1cnn2-c1ccc(C)cc1 as the compound, how does the EC50 (HT-1080) read?
A: > 50 µM (not active)

Q: And the EC50 [5]?
A: < 0.2 µM (active)

Q: Which IC50 (Estrogen receptor) does the source give for O=C(CCCn1c(=S)[nH]c2ccccc2c1=O)N1CCN(c2ccccc2O)CC1 here?
A: 0.07 µM (not active)

Q: With COCC(C)n1c(-c2ccc3c(c2)NC(=O)CO3)cs/c1=N\c1ccc(OC(F)F)cc1 (configuration not stated) as the compound, how does the IC50 (Beta-galactosidase) read?
A: > 66.6 µM (inactive)

Q: What about the AC50 [6] of the same compound?
A: 3.15 µM (active)

Q: And the EC50 (cells [7])?
A: > 29.9 µM (inactive)

Q: What about the IC50 (Galanin receptor type 3) of the same compound?
A: 4.24 µM (active) and 3.49 µM (active)

Q: And the IC50 [8]?
A: > 66.6 µM (inactive)

Q: And the AC50 [9]?
A: 42.7 µM (active)

Q: And the AC50 [10]?
A: 4.28 µM (active)

Q: With O=c1cc(-c2ccccc2Cl)oc2ccc([N+](=O)[O-])c(O)c12 as the compound, how does the EC50 [11] read?
A: 4.58 µM (active)

Q: What about the CC50 [12] of the same compound?
A: 26.2 µM (active)

Q: What about the EC50 (Streptococcus) of the same compound?
A: 8.09 µM (active)

Q: What about the IC50 (cells [13]) of the same compound?
A: 12.1 µM (active)

Q: And the IC50 [14]?
A: 9.17 µM (active)

Q: And the CC50 [15]?
A: > 20 µM (active)
